Here are results for 23 molecules from patent publication US7517874B2 (priority 2007, dated 2009).

Where two headings read alike, the source gives them in different places.

Assay [1] deals with human CB1 receptor (hCB1) (Homo sapiens, UniProt P21554). The assay is described as follows: cell-based. It is filed as cell-based. Particulars: for +/− HCB1: agonist or inverse agonist at hCB1. An outline of the steps: (§1)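 First, cells in IBMX-containing HEPES-buffered HBSS are raised to elevated cAMP with 2-8 μM NKH-477 for 30 min. Data are normalised to the forskolin and forskolin + 1 μM CP55,940 controls.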

The target in the next assay is T1, rat CB2 receptor (rCB2) (Rattus norvegicus, UniProt Q9QZN9).
T1 sequence (Q9QZN9 1-360): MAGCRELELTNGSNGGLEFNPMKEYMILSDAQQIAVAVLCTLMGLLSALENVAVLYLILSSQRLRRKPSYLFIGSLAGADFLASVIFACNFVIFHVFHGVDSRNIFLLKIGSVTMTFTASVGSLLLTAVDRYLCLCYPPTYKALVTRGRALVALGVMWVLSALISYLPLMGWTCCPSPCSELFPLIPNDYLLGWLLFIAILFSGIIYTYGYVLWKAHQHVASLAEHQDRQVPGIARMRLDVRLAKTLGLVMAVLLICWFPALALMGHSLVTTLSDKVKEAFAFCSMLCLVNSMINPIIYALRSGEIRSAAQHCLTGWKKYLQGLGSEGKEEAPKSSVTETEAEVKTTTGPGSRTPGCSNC
Briefly: cell-based. It is filed as cell-based. Particulars: for +/− RCB2: agonist or inverse agonist at rCB2. An outline of the steps:
as §1

Where [2] appears, read: groups >100 nM-10 μM and >10 μM, cAMP, CHO-K1 hCB1, read-out: EC50 HCB1.

Sequence of human CB1 receptor (hCB1) (P21554 whole entry): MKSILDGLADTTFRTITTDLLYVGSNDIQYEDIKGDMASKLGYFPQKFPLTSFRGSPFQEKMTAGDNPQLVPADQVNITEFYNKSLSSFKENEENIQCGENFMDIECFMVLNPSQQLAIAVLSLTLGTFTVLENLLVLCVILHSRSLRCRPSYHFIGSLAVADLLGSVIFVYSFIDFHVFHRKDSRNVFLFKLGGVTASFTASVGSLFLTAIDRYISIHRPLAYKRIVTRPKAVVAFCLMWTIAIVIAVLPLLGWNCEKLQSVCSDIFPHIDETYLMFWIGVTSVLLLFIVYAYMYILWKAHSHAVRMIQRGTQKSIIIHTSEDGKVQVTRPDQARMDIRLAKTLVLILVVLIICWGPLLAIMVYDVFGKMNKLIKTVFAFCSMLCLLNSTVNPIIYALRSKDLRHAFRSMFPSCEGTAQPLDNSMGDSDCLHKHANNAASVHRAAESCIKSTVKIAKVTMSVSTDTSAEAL

For `CNC(=O)[C@@H](NC(=O)c1nc(-c2ccccc2)n2c1CN(CCC(C)(C)C)CC2)C(C)(C)C` [Compound 54, (S)-N-(3,3-dimethyl-1-(methylamino)-1-oxobutan-2-yl)-7-(3,3-dimethylbutan)-3-phenyl-5,6,7,8-tetrahydroimidazo[1,5-a]pyrazine-1-carboxamide], in assay [1], the concentration giving a half-maximal response (EC50) was above 10000 nM. Besides, the “+/− RCB2” value at rat CB2 receptor (rCB2) is on record as “−”.
Turning to `CNC(=O)[C@H](CC(C)(C)C)NC(=O)c1nc(-c2cccc(F)c2)n2c1CN(C)CCC2` [Compound 548, (S)-N-(4,4-dimethyl-1-(methylamino)-1-oxopentan-2-yl)-3-(3-fluorophenyl)-8-methyl-6,7,8,9-tetrahydro-5H-imidazo[1,5-a][1,4]diazepine-1-carboxamide], in assay [1], the “+/− HCB1” value is “+”. The “+/− RCB2” value on rat CB2 receptor (rCB2) is “+”.
As for `CNC(=O)[C@@H](NC(=O)c1nc(-c2ccccc2)n2c1CN(C)CCC2)c1ccccc1` [Compound 543, (S)-8-methyl-N-(2-(methylamino)-2-oxo-1-phenylethyl)-3-phenyl-6,7,8,9-tetrahydro-5H-imidazo[1,5-a][1,4]diazepine-1-carboxamide], in assay [1], the concentration for a half-maximal effect (EC50) was above 10000 nM. On rat CB2 receptor (rCB2), the “+/− RCB2” value is given as “+”.
For the molecule `CC(C)(C)OC(=O)N1CCCn2c(-c3ccccc3)nc(C(=O)N[C@H](C(=O)O)C(C)(C)C)c2C1` [Compound 515, (S)-2-(8-(tert-butoxycarbonyl)-3-phenyl-6,7,8,9-tetrahydro-5H-imidazo[1,5-a][1,4]diazepine-1-carboxamido)-3,3-dimethylbutanoic acid], the EC50 in assay [1] (setting [2]) is above 10000 nM. Also, the “+/− RCB2” value on rat CB2 receptor (rCB2) is on record as “−”.
In assay [1], `Cc1noc([C@@H](NC(=O)c2nc(-c3ccccc3)n3c2CN(CC(C)C)CC3)C(C)(C)C)n1` [Compound 90, (S)-N-(2,2-dimethyl-1-(3-methyl-1,2,4-oxadiazol-5-yl)propyl)-7-isobutyl-3-phenyl-5,6,7,8-tetrahydroimidazo[1,5-a]pyrazine-1-carboxamide] returned an EC50 above 10000 nM. The “+/− RCB2” value on rat CB2 receptor (rCB2) is recorded as “−”.
Turning to `CN1CCCn2c(-c3ccc(F)c(Cl)c3)nc(C(=O)N[C@H](C(N)=O)C(C)(C)C)c2C1` [Compound 576, (S)-N-(1-amino-3,3-dimethyl-1-oxobutan-2-yl)-3-(3-chloro-4-fluorophenyl)-8-methyl-6,7,8,9-tetrahydro-5H-imidazo[1,5-a][1,4]diazepine-1-carboxamide], the “+/− HCB1” value in assay [1] was “+”. The “+/− RCB2” value on rat CB2 receptor (rCB2) was “+”.
For the molecule `CNC(=O)[C@@H](NC(=O)c1nc(-c2ccc(Cl)cc2F)n2c1CN(C1CCN(C(C)=O)CC1)CCC2)C(C)(C)C` [Compound 527, (S)-8-(1-acetylpiperidin-4-yl)-3-(4-chloro-2-fluorophenyl)-N-(3 3-dimethyl-1-(methylamino)-1-oxobutan-2-yl)-6,7,8,9-tetrahydro-5H-imidazo[1,5-a][1,4]diazepine-1-carboxamide], the 50% effective concentration (EC50) in assay [1] is above 10000 nM. The “+/− RCB2” value at rat CB2 receptor (rCB2) was “−”.
As to `CC(C)=CC(=O)c1nc(-c2ccccc2)n2c1CN(C)CC2` [Compound 293, 3-methyl-1-(7-methyl-3-phenyl-5,6,7,8-tetrahydroimidazo[1,5-a]pyrazin-1-yl)but-2-en-1-one], in assay [1] (setting [2]), the EC50 was above 10000 nM. The “+/− RCB2” value on rat CB2 receptor (rCB2) is listed as “−”.
In assay [1], `CNC(=O)[C@@H](NC(=O)c1nc(-c2cc(F)cc(OC)c2)n2c1CN(C)CCC2)C(C)(C)C` [Compound 384, (S)-N-(3,3-dimethyl-1-(methylamino)-1-oxobutan-2-yl)-3-(3-fluoro-5-methoxyphenyl)-8-methyl-6,7,8,9-tetrahydro-5H-imidazo[1,5-a][1,4]diazepine-1-carboxamide] returned an EC50 above 10000 nM. Moreover, the “+/− RCB2” value at rat CB2 receptor (rCB2) is given as “−”.
The matching figures for `C=C(c1ccccc1)c1nc(C(=O)N[C@H](C(=O)NC)C(C)(C)C)c2n1CCCN(C)C2` [Compound 455, (S)-N-(3,3-dimethyl-1-(methylamino)-1-oxobutan-2-yl)-8-methyl-3-(1-phenylvinyl)-6,7,8,9-tetrahydro-5H-imidazo[1,5-a][1,4]diazepine-1-carboxamide]: above 10000 nM and “+”.
On to `CC(C)C[C@H](NC(=O)c1nc(-c2cc(Cl)c(F)cc2F)n2c1CN(C)CCC2)C(N)=O` [Compound 571, (S)-N-(1-amino-4-methyl-1-oxopentan-2-yl)-3-(5-chloro-2,4-difluorophenyl)-8-methyl-6,7,8,9-tetrahydro-5H-imidazo[1,5-a][1,4]diazepine-1-carboxamide], for which the “+/− HCB1” value in assay [1] is listed as “+”. Besides, on rat CB2 receptor (rCB2), the “+/− RCB2” value is listed as “+”.
Consider `CNC(=O)[C@H](CC(C)C)NC(=O)c1nc(C2=CCCC2)n2c1CN(C)CC2` [Compound 279, (S)-3-cyclopentenyl-7-methyl-N-(4-methyl-1-(methylamino)-1-oxopentan-2-yl)-5,6,7,8-tetrahydroimidazo[1,5-a]pyrazine-1-carboxamide], for which, in assay [1], the “+/− HCB1” value is given as “+”. Moreover, on rat CB2 receptor (rCB2), the “+/− RCB2” value was “+”.
Take `CNC(=O)[C@@H](NC(=O)c1nc(-c2ccc(C(C)(C)C)cc2)n2c1CN(C)CCC2)C(C)(C)C` [Compound 414, (S)-3-(4-tert-butylphenyl)-N-(3,3-dimethyl-1-(methylamino)-1-oxobutan-2-yl)-8-methyl-6,7,8,9-tetrahydro-5H-imidazo[1,5-a][1,4]diazepine-1-carboxamide]: the 50% effective concentration (EC50) in assay [1] is above 10000 nM. Moreover, on rat CB2 receptor (rCB2), the “+/− RCB2” value is “−”.
The matching figures for `CNC(=O)[C@@H](NC(=O)c1nc(CC(C)C)n2c1CN(C)CC2)C(C)(C)C` [Compound 306, (S)-N-(3,3-dimethyl-1-(methylamino)-1-oxobutan-2-yl)-3-isobutyl-7-methyl-5,6,7,8-tetrahydroimidazo[1,5-a]pyrazine-1-carboxamide]: above 10000 nM and “+”.
Consider `CNC(=O)[C@@H](NC(=O)c1nc(-c2ccccc2)n2c1CN(C1CC1)CC2)C(C)(C)C` [Compound 197, (S)-7-cyclopropyl-N-(3,3-dimethyl-1-(methylamino)-1-oxobutan-2-yl)-3-phenyl-5,6,7,8-tetrahydroimidazo[1,5-a]pyrazine-1-carboxamide], for which the EC50 in assay [1] was above 10000 nM. At rat CB2 receptor (rCB2), the “+/− RCB2” value was “−”.
`CNC(=O)[C@@H](NC(=O)c1nc(-c2ccc(F)c(C)c2)n2c1CN(C)CCC2)C(C)(C)C` [Compound 347, (S)-N-(3,3-dimethyl-1-(methylamino)-1-oxobutan-2-yl)-3-(4-fluoro-3-methylphenyl)-8-methyl-6,7,8,9-tetrahydro-5H-imidazo[1,5-a][1,4]diazepine-1-carboxamide]: the concentration for a half-maximal effect (EC50) in assay [1] is above 10000 nM; at rat CB2 receptor (rCB2), above 10 µM.
In turn, `CNC(=O)[C@@H](NC(=O)c1nc(C(=O)Nc2ccccc2)n2c1CN(C)CC2)C(C)(C)C` [Compound 290, (S)-N1-(3,3-dimethyl-1-(methylamino)-1-oxobutan-2-yl)-7-methyl-N3-phenyl-5,6,7,8-tetrahydroimidazo[1,5-a]pyrazine-1,3-dicarboxamide] gave a 50% effective concentration (EC50) in assay [1] above 10000 nM. In addition, on rat CB2 receptor (rCB2), the “+/− RCB2” value is reported as “−”.
Regarding `CN1CCn2c(-c3ccccc3)nc(C(=O)NCC3CCOCC3)c2C1` [Compound 236, 7-methyl-3-phenyl-N-((tetrahydro-2H-pyran-4-yl)methyl)-5,6,7,8-tetrahydroimidazo[1,5-a]pyrazine-1-carboxamide], the EC50 in assay [1] is above 10000 nM; on rat CB2 receptor (rCB2), above 10 µM.
As for `CNC(=O)[C@@H](NC(=O)c1nc(-c2cccc(C(F)(F)F)c2F)n2c1CN(C)CCC2)C(C)(C)C` [Compound 364, (S)-N-(3,3-dimethyl-1-(methylamino)-1-oxobutan-2-yl)-3-(2-fluoro-3-(trifluoromethyl)phenyl)-8-methyl-6,7,8,9-tetrahydro-5H-imidazo[1,5-a][1,4]diazepine-1-carboxamide], the EC50 in assay [1] was above 10000 nM. Moreover, at rat CB2 receptor (rCB2), the “+/− RCB2” value is reported as “−”.
For `CNC(=O)[C@@H](NC(=O)c1nc(-c2ccc(C)cc2F)n2c1CN(CC1CC1)CCC2)C(C)(C)C` [Compound 323, (S)-8-(cyclopropylmethyl)-N-(3,3-dimethyl-1-(methylamino)-1-oxobutan-2-yl)-3-(2-fluoro-4-methylphenyl)-6,7,8,9-tetrahydro-5H-imidazo[1,5-a][1,4]diazepine-1-carboxamide], the EC50 in assay [1] was above 10000 nM. The “+/− RCB2” value on rat CB2 receptor (rCB2) is “−”.
The corresponding values for `CC(C)(C)OC(=O)N1CCn2c(-c3ccc(Cl)cc3)nc(C(=O)N[C@H](CO)C(C)(C)C)c2C1` [Compound 34, (S)-tert-butyl 3-(4-chlorophenyl)-1-(1-hydroxy-3,3-dimethylbutan-2-ylcarbamoyl)-5,6-dihydroimidazo[1,5-a]pyrazine-7(8H)-carboxylate] are above 10000 nM and “−”.
For `CN1CCCn2c(-c3ccc(F)c(F)c3)nc(C(=O)N[C@H](C(=O)N(C)C)C(C)(C)C)c2C1` [Compound 561, (S)-3-(3,4-difluorophenyl)-N-(1-(dimethylamino)-3,3-dimethyl-1-oxobutan-2-yl)-8-methyl-6,7,8,9-tetrahydro-5H-imidazo[1,5-a][1,4]diazepine-1-carboxamide], in assay [1], the “+/− HCB1” value is “+”. Moreover, the “+/− RCB2” value on rat CB2 receptor (rCB2) is on record as “+”.
In assay [1], `CNC(=O)[C@@H](NC(=O)c1nc(-c2ccc(C)c(F)c2)n2c1CN(C)CC2)C(C)(C)C` [Compound 240, (S)-N-(3,3-dimethyl-1-(methylamino)-1-oxobutan-2-yl)-3-(3-fluoro-4-methylphenyl)-7-methyl-5,6,7,8-tetrahydroimidazo[1,5-a]pyrazine-1-carboxamide] returned an EC50 above 10000 nM. For the same molecule, the “+/− RCB2” value at rat CB2 receptor (rCB2) was “−”.
